Measured values taken from patent US20120301551A1, “COMPOUNDS AND COMPOSITIONS FOR TREATING NEURONAL DEATH OR NEUROLOGICAL DYSFUNCTION” (Neurotech Pharmaceuticals Co., Ltd., priority 2005, published 2012).
Read-outs that look alike come from different tables or passages of the source.

Legend:
[1] = tested on: Fas, FADD, cleaved caspase-8 and caspase-3; assay: Fas pathway in lumbar spinal cord of G93A transgenic mice (Western blot); conditions: at 12 weeks of age; 2-hydroxy-TTBA 30 mg/kg/d, Li^+ 200 mg/kg/d in the diet
Experimental: G93A transgenic mice received oral administration of 2-hydroxy-TTBA (30 mg/kg/d) in the diet from 8 weeks of age.

[2] = superoxide scavenging in test tube; assay type: biochemical; conditions: read-out: superoxide scavenging effect (IC50 value)
Experimental: In addition, scavenging effects of superoxide and hydroxyl radical in test tube were evaluated. Hydroxyl radical scavenging activities of 0.1 uM, 1 uM and 10 uM of chemical 01 were 13.35%, 33.33% and 71.72%, respectively.

TNF-a = assay: LPS-induced TNF-a in mesencephalic cultures; assay type: cell-based; conditions: 5 ng/ml LPS; 0-100 uM; 3 hours
Experimental: Mesencephalic nerve cell cultures were pre-treated with 5 ng/ml of LPS for 30 minutes to make a cull culture model of Parkinson's disease, and then 0-100 uM of chemical 01 were added. The level of NO was evaluated 24 hours after administration of chemical 01, and the level of TNF-a was evaluated 3 hours after administration of chemical 01 (mean±SEM, n=7-12 culture well/each group).

[3] = single-dose toxicity test; conditions: mouse, in vivo; single dose
Experimental: Single-dose toxicity test of compounds showing good results in the above three efficacy tests were evaluated.

[4] = tested on: APPswe/PS1deltaE9 double transgenic mice; assay: brain Aβ40/Aβ42 levels in APPswe/PS1deltaE9 double transgenic mice (ELISA); assay type: in vivo, mouse
Experimental: SDS-soluble/insoluble Aβ40 or Aβ42 levels were analyzed by colorimetric sandwich ELISA kit (BIOSOURCE, Camarillo, Calif.).

C57/BL6 mice = assay: microglia activation in MPTP mouse model of Parkinson's disease (CD11b); assay type: in vivo; conditions: 50 mg/kg intraperitoneal, MPTP 40 mg/kg s.c., two days
Experimental: MPTP (40 mg/kg) was subcutaneously injected into C57/BL6 mice (male/8 week-old). Some of the mice were administered with 50 mg/kg of chemical 01 through intraperitoneal injection 30 minutes before the injection of MPTP everyday. Two days later, brain tissue was extracted and immunostained with CD11b. After reaction, DAB (diaminobenzidine) was used for chromograph, and then the activation degree of microglia (a marker of inflammation in brain disease model) was evaluated with optical microscope (FIG. 14E).

[5] = tested on: reactive oxygen species (ROS) in cortical cell cultures; assay: ROS production in cortical cell cultures exposed to FeCl2 (DCF fluorescence); assay type: cell-based; conditions: 1 uM; 50 uM FeCl2
Experimental: It was evaluated whether chemical 01 suppresses reactive oxygen species (ROS) increased by FeCl2. Cortical cell cultures (DIV 11-14) were continuously exposed to 50 uM FeCl2 alone or with inclusion of 1 uM of chemical 01. Then, the fluorescent intensity of 6-carboxy-2′,7′-dichlorofluorescin diacetate (oxidation product of DCDHF-DA) was evaluated (mean±SEM, n=3).

beta-amyloid (Aβ42) = assay: suppression of beta-amyloid (Aβ42) production in CHO cells (ELISA); assay type: cell-based, Chinese hamster; conditions: Cricetulus griseus; CHO cells stably transfected with human wild APP695 and PS1ΔExon9; culture medium, ELISA; read-out: Aβ42 lowering effect (IC50)
Experimental: The suppressing effects of many drug candidates on production of beta-amyloid were evaluated in CHO cell line having the increased level of beta-amyloid. Results were shown as IC50 (uM) (Item C of Table 3 below).
In the Table 3, A, B and C mean neuron protecting effect against Fe^+2, suppressing effect on production of NO and suppressing effect on production of beta-amyloid, respectively. The term “ND” means “Not determined.”
Cells were treated with increasing concentrations of various chemicals in Chinese hamster ovary (CHO) cells stably transfected with human wild APP695 and the PS1ΔExon9, and analyzed Aβ42 levels in culture medium by colorimetric sandwich ELISA kit (BIOSOURCE, Camarillo, Calif.). In CHO cells, IC50 of Chemical—01-08 on Aβ42 lowering effect was 20-100 uM (Table 4).

APP/PS1 mouse = assay: plasma Aβ40/Aβ42 levels in APP/PS1 mouse; assay type: in vivo
Experimental: Also, treatment with 25 mg/kg/day of chemical 01 for 5 days in 11.5 month-old APP/PS1 mouse caused a significant 44% reduction in SDS-insoluble Aβ42 levels in plasma and a significant 38% reduction in SDS-insoluble Aβ40 levels in plasma compared to APP/PS1 mouse fed with general chow only.
In further, treatment with 25 mg/kg/d of chemical—01 for 7 months (from 3.5 to 10.5 months) caused a significant 42% reduction in SDS-insoluble Aβ40 levels (data not shown). Also, treatment with 25 mg/kg/d of chemical—01 for 5 days in 11.5 months caused a significant 40% reduction in SDS-insoluble Aβ40/Aβ42 levels in plasma (data not shown).

G93A mouse = assay: motor performance, onset and survival in G93A mouse (chemical 01); assay type: in vivo
Experimental: G93A (Glycine Alanine) mouse having similar pathophysiological characteristics with ALS human patient was used to evaluate therapeutic effect of drug in ALS (amyotrophic lateral sclerosis), one of main degenerative brain diseases. It was analyzed whether treatment with 5 mg/kg/day or 20 mg/kg/day of chemical 01 improved motor performance ability or not.
In PaGE test and Rotarod test, onset and mortality were analyzed for four mice per each group (FIGS. 13C-D). […] In survival ability, G93A mouse fed with chow only, G93A mouse treated with 5 mg/kg/day of chemical 01 and G93A mouse treated with 20 mg/kg/day of chemical 01 survived for 131.57 days, 153.13 days, and 150.73 days, respectively. Treatment with chemical 01 extended survival rate of G93A mouse (FIG. 13D).

[6] = 25 mg/kg/day for 5 days in 11.5 month-old APP/PS1 mouse

Structure (SMILES) | levels of Fas, FADD, cleaved caspase-8 and caspase-3 (Fas pathway) in lumbar spinal cord [1] | IC50 ([2]; NADH/PMS system) [µM] | IC50 ([2]; X/XO system) [µM] | increase of TNF-a caused by LPS (TNF-a) | LD50 [3] [mg/kg] | SDS-soluble/insoluble Aβ40 or Aβ42 levels, in words ([4]; 25 mg/kg/d chemical 01 or 62.5 mg/kg/day ibuprofen for 14.5 months) | reduction in SDS-insoluble Aβ40 levels ([4]; 25 mg/kg/day for 4 months (from 8.5 to 12.5 month-old)) [%] | reduction in SDS-insoluble Aβ40 levels ([4]; 25 mg/kg/day for 7 months (from 3.5 to 10.5 months)) [%] | activity of microglia caused by MPTP (C57/BL6 mice) | production of ROS in cell increased by FeCl2 [5] | IC50 (beta-amyloid (Aβ42)) [µM] | reduction in SDS-insoluble Aβ40/Aβ42 levels in plasma (APP/PS1 mouse; 25 mg/kg/d for 5 days in 11.5 months) [%] | reduction in SDS-insoluble Aβ40 levels in plasma (APP/PS1 mouse; [6]) [%] | reduction in SDS-insoluble Aβ42 levels in plasma (APP/PS1 mouse; [6]) [%] | survival (G93A mouse; 5 mg/kg/day) [days] | onset (G93A mouse; 5 mg/kg/day or 20 mg/kg/day) [days] | survival (G93A mouse; 20 mg/kg/day) [days] | motor performance versus control fed with general chow only (Rotarod, PaGE) (G93A mouse; 5 or 20 mg/kg/day in chow, from 14 weeks to 17 weeks)
O=C(O)c1cc(NCc2c(F)c(F)c(C(F)(F)F)c(F)c2F)ccc1O [2-Hydroxy-TTBA, 2-hydroxy-5-(2,3,5,6-tetrafluoro-4-trifluoromethyl-benzylamino)-benzoic acid] | slightly attenuated | – | – | – | – | – | – | – | – | – | – | – | – | – | – | – | – | –
O=C(O)c1cc(NCCc2ccc(C(F)(F)F)cc2)ccc1O [chemical 01, 2-Hydroxy-5-[2-(4-trifluoromethyl-phenyl)-ethylamino]-benzoic acid] | – | 26.1 | > 100 | dose-dependent manner | > 3000 | reduced | 27 | 42 | decreased | suppressed | 19.6 | 40 | 38 | 44 | 153.13 | 125.67 | 150.73 | better motor performance
